tested on: Tetrahymena pyriformis; test: 48 h IGC50 (-log10 mol/L); higher = more toxic

SMILES	48 h IGC50 (-log10 mol/L)
Oc1ccc(Cl)c(Cl)c1	4.75
Nc1ncc([N+](=O)[O-])cn1	2.57
O=[N+]([O-])c1ccc(Nc2ccccc2)cc1	4.89
N#Cc1cc([N+](=O)[O-])cc([N+](=O)[O-])c1	4.22
COC(=O)c1ccc(Br)cc1	3.6
O=Nc1ccc(O)cc1	3.65
C=COC(=O)c1ccccc1	3.08
CCC(=O)NC	1.47
O=Cc1cccc(Cl)c1	3.41
CCOC(=O)CCC(C)=O	1.6
CCOC(=O)CCCCCCC(=O)OCC	3.7
CC(=O)c1ccc(O)cc1C	3.19
O=C(Oc1cccc(O)c1)c1ccccc1	4.11
CCOC(=O)CC(C)C	2.28
Oc1c(Cl)cccc1Cl	3.73
CC(C)(C)c1ccc(N)cc1	3.36
CC/C=C/C=C/C=O	3.86
NC(=O)Oc1ccccc1	2.61
OC/C=C\CO	0.851
C#CC(C)(C)N	2.09
CCCCC/C=C/CCC=O	4.21
CC(=O)c1ccc[nH]1	2.09
C=COC(=O)CCC	2.62
CCCC(C)O (stereo unspecified)	1.84

SMILES	48 h IGC50 (-log10 mol/L)
CCCCC(N)CO (stereo unspecified)	2.42
N#C/C=C/c1ccco1	2.69
O=[N+]([O-])c1ccc(Br)c([N+](=O)[O-])c1	5.31
CCC(Cl)C(N)=O (stereo unspecified)	1.78
CCN(CC)C(C)=O	1.46
Oc1cccc(Cl)c1Cl	4.28
O=C(O)c1cccc(Cl)c1Cl	2.59
CC(=O)CCC(C)=O	1.6
Cc1cc(C)c(C)c(O)c1	3.36
CCC(CC)COC(C)=O	2.88
O=[N+]([O-])c1cccc2cccnc12	3.08
CCCCC(O)CO (stereo unspecified)	1.73
C#CCN(C)C	1.85
CC(=O)c1cc(C)c(C)cc1O	3.71
Oc1c(Cl)cc(Br)cc1Cl	4.78
NC(=O)c1ccc(Cl)cc1	3.09
N#CCBr	5.23
Oc1c(F)c(F)cc(F)c1F	4.17
CCc1cc(O)ccc1Cl	4.08
C/C=C/C(=O)OC	2.08
Cc1cc2ccccc2o1	3.62
c1ccc(Cc2ccccn2)cc1	3.38
Cc1[nH]cnc1C=O	2.07
OCc1ccccc1Br	3.1

SMILES	48 h IGC50 (-log10 mol/L)
C1CSCCS1	2.89
CCc1cccc(CC)c1N	3.31
N#CCC(=O)c1ccco1	3.3
CC(C)(Br)C(=O)O	2.42
OCc1cccc(O)c1	1.98
CCOC(=O)CCl	4.06
C=CC(O)CC (stereo unspecified)	1.65
Nc1ccc(C(=O)c2ccccc2)cc1	3.68
Cc1ccc2nc(C)ccc2c1	3.68
O=C(O)CCC(=O)O	2.06
CCOC(=O)C(C)CC (stereo unspecified)	2.11
CC(C)N	2.14
N#Cc1cccc(Cl)c1	2.94
C=CCOC(=O)CC#N	2.21
O=[N+]([O-])c1cc(Cl)cc(Cl)c1O	4.75
CC(C)(C)c1cc(N)cc(C(C)(C)C)c1	4.44
CC(=O)C(Cl)C(C)=O	4.44
CCc1ccco1	2.48
CCc1ccc(-c2ccccc2)cc1	4.97
CC(C)(CO)CBr	2.54
N#CC(=O)c1ccccc1	3.31
SC1CCCCC1	3
CCCCCCCCOC(=O)CC#N	3.9
O=C(Cc1ccccc1)c1ccc(O)cc1	4.07

SMILES	48 h IGC50 (-log10 mol/L)
CCCCCBr	3.48
CCOc1ccc(O)cc1	3.01
CCOc1cc(O)ccc1OC	2.7
O=C(O)CCCBr	2.23
Cc1ccncc1C	2.5
CCC(=O)c1ccccc1	2.93
C#Cc1ccccc1	2.86
Cc1cc(N)ncc1[N+](=O)[O-]	3.37
Fc1cc(F)c(F)nc1F	2.39
Oc1ccc(O)cc1	3.47
NCCCCc1ccccc1	3.62
CCCCCCC#CC(=O)OC	4.32
N#CCCCCl	2.07
Oc1cc(Cl)c(O)cc1Cl	4.81
Cc1cccc2ccccc12	3.74
COP(=O)(OC)OC	1.18
CCCCCCCC(O)CCCCC (stereo unspecified)	5.24
OCCCCCCCCCl	3.49
CCCCCC(O)CC (stereo unspecified)	2.94
CCCCCC(=O)Cl	3.34
Oc1cccc(I)c1	4.12
C=CCc1ccccc1	3.19
OCC(c1ccccc1)c1ccccc1	3.65
Brc1ccoc1	2.52

SMILES	48 h IGC50 (-log10 mol/L)
Nc1cc(Cl)ccc1O	3.78
N#Cc1c(O)ccc(O)c1C#N	2.56
O=[N+]([O-])c1cc(F)ccc1F	3.33
S=C=NC(c1ccccc1)c1ccccc1	6.05
CC/C=C/C(=O)O	2.72
CCCCC#N	1.99
CCc1cccc(N)c1	2.97
O=[N+]([O-])c1ccccc1CO	2.85
O=[N+]([O-])c1ccccc1Cl	3.68
Nc1c(Br)cc([N+](=O)[O-])cc1[N+](=O)[O-]	4.24
COC(=O)c1ccc(C=O)cc1	3.3
COc1ccc(C=O)c(Cl)c1O	3.2
CCCC(O)Cc1ccccc1 (stereo unspecified)	3.16
O=C1C=Cc2ccccc2C1=O	6.2
OCCCCc1ccccc1	3.12
CCCCCCCCCCC(C)O (stereo unspecified)	4.66
O=Cc1ccc(O)c(O)c1	3.11
O=[N+]([O-])c1c(F)cc(F)c(F)c1F	4.87
CCCC(Br)C(=O)OCC (stereo unspecified)	3.7
COC(=O)CCC(=O)OC	1.94
Cc1nccnc1C	2.13
Cc1ccnc(Cl)c1[N+](=O)[O-]	3.29
NC(CO)CO	1.32
CC(=O)OC/C=C/c1ccccc1	3.59

SMILES	48 h IGC50 (-log10 mol/L)
C#CC=CCO	2.44
CCS(=O)(=O)CC	1.16
Clc1ccccn1	2.16
CC(=O)c1ccc(C)o1	2.17
C=COC(=O)/C=C/C	2.85
CC/C=C\CCO	2.19
CC(C)CCCO	2.36
COC(=O)c1cc(O)cc(O)c1	2.86
O=Cc1ccc(-c2ccccc2)cc1	4.12
CC(=O)c1ccc(C)[nH]1	2.17
S=C=NCCCc1ccccc1	5.54
CNCCO	1.18
O=[N+]([O-])c1cccc(Br)c1	4.03
OCCCBr	2.07
OC(c1ccccc1)c1ccccc1	3.5
Cc1cccc(C)c1[N+](=O)[O-]	3.3
Cc1cc(O)ccc1O	4.86
C/C=C/COC(C)=O	2.13
O=Cc1cccc(Br)c1	3.51
C=CC(=O)CC	4.52
O=[N+]([O-])c1ccc(Cl)cc1Cl	3.99
CCCCCCC(C)=O	2.85
COc1cc(O)ccc1O	5.2
CCCCCCCCCC(=O)O	3.51

SMILES	48 h IGC50 (-log10 mol/L)
O=Cc1ccccc1F	3.08
OCCCCCc1ccccc1	3.42
CCCCCCC(C)O (stereo unspecified)	3
O=Cc1cc(Cl)cc(Cl)c1Cl	4.72
Fc1ccc(-c2ccccc2)cc1	3.53
Cc1cccc(C=O)c1	3.08
CCCC#CC(=O)OC	3.76
CC(C)(C)N	2.1
CCC=CCCC=CC=O	4.34
C#CCSc1ccccc1	3.54
O=[N+]([O-])c1ccc(F)cc1O	4.12
Cc1ccc(Cl)c(O)c1	3.54
CC(C)CC(N)=O	1.34
CCCCCC#CC(=O)OC	4.04
CCCCCC#CC=O	4.72
Nc1c([N+](=O)[O-])cccc1[N+](=O)[O-]	3.84
CC(C)(CO)CCl	2.22
Nc1c(Cl)cc(Cl)cc1[N+](=O)[O-]	4.26
O=C(CBr)c1ccc2ccc3cccc4ccc1c2c34	5.39
CCCCOc1ccc(C=O)cc1	3.72
OCc1cccc2ccccc12	3.13
CC(=O)N(C)C	1.05

Reference: EPA's aquatic toxicity sets
